For data set [1], the system named is Staphylococcus aureus. In words: Resistance ratio, MIC for methicillin-resistant Staphylococcus aureus ATCC 33592 grown on half-MIC concentration for 3 passages to MIC for methicillin-resistant Staphylococcus aureus ATCC 33592 after 24 hrs. Type of data set: functional.
Data set [2] has as its system Escherichia coli. Nature of the data set: Antibacterial activity against Escherichia coli JM109 assessed as membrane disruption at 10 ug/ml after 2 hrs by DAPI staining-based fluorescence microscopic analysis. Type of data set: functional, organism-based.
Data set [3] in a line: Toxicity in human RBC assessed as hemolysis after 1 hr. Particulars: for HC10: erythrocyte, 1 h; for HC50 at 1 h: red blood cells. Type of data set: cell-based, Erythrocyte.
In data set [4] the test system is Escherichia coli. Nature of the data set: Antibacterial activity against Escherichia coli JM109 after 24 hrs by broth micro-dilution method. It counts as functional. Particulars: JM109, 24 h. Background: Dilution methods test growth across graded concentrations, often in twofold steps.
Data set [5] deals with Staphylococcus epidermidis. Nature of the data set: Antibacterial activity against multidrug-resistant Staphylococcus epidermidis RP62A after 24 hrs by broth micro-dilution method. It counts as functional.
The subject of data set [6] is Enterococcus faecalis. In words: Antibacterial activity against vancomycin-resistant Enterococcus faecalis ATCC 700802 after 24 hrs by broth micro-dilution method. Type of data set: functional. Particulars: ATCC 700802, 24 h.
Data set [7] relates to Candida albicans. Nature of the data set: Antifungal activity against Candida albicans ATCC 10231 after 48 hrs by broth micro-dilution method. It counts as functional. Particulars: ATCC 10231, 48 h.
Data set [8] concerns Staphylococcus aureus. In words: Antibacterial activity against methicillin-resistant Staphylococcus aureus ATCC 33592 assessed as lipid membrane depolarization after 10 mins by DiSC3-5 staining-based fluorescence analysis. It counts as functional, organism-based.
For data set [9], the system named is Bacillus subtilis. In words: Antibacterial activity against Bacillus subtilis BR151 assessed as membrane disruption at 10 ug/ml after 2 hrs by propidium iodide staining-based fluorescence microscopic analysis. It counts as functional, organism-based.
For data set [10], the system named is Bacillus subtilis. In words: Antibacterial activity against Bacillus subtilis BR151 assessed as membrane disruption at 10 ug/ml after 2 hrs by DAPI staining-based fluorescence microscopic analysis. It counts as functional, organism-based.
The test system of data set [11] is Pseudomonas aeruginosa. Nature of the data set: Antibacterial activity against multidrug-resistant Pseudomonas aeruginosa ATCC 27853 after 24 hrs by broth micro-dilution method. Type of data set: functional. Particulars: ATCC 27853, 24 h.
The test system of data set [12] is Escherichia coli. In words: Antibacterial activity against Escherichia coli JM109 assessed as membrane disruption at 10 ug/ml after 2 hrs by propidium iodide staining-based fluorescence microscopic analysis. Type of data set: functional, organism-based.
Data set [13] deals with Bacillus subtilis. Nature of the data set: Antibacterial activity against Bacillus subtilis BR151 assessed as loss membrane potential at 10 ug/ml. Type of data set: functional, organism-based.
For data set [14], the system named is Klebsiella pneumoniae. Nature of the data set: Antibacterial activity against Klebsiella pneumoniae ATCC 13383 after 24 hrs by broth micro-dilution method. Particulars: ATCC 13383, 24 h. It counts as functional.
In data set [15] the test system is Bacillus subtilis. Nature of the data set: Antibacterial activity against Bacillus subtilis BR151 after 24 hrs by broth micro-dilution method. Type of data set: functional. Particulars: BR151, 24 h.
Data set [16] relates to Escherichia coli. In words: Antibacterial activity against Escherichia coli JM109 assessed as loss membrane potential at 10 ug/ml. It counts as functional, organism-based.
A short description of data set [17]: Selectivity ratio of HC50 for human RBC to MIC for methicillin-resistant Staphylococcus aureus ATCC 33592. Type of data set: functional.
The subject of data set [18] is Staphylococcus aureus. Nature of the data set: Antibacterial activity against methicillin-resistant Staphylococcus aureus ATCC 33592 after 24 hrs by broth micro-dilution method. Type of data set: functional. Particulars: ATCC 33592, 24 h.
Data set [19] can be described thus: Selectivity for Escherichia coli JM109 over mouse N2A cells expressing amyloid precursor protein.
Data set [20] relates to N2a. Nature of the data set: Toxicity against mouse N2A cells expressing amyloid precursor protein up to 100 ug/ml after 36 hrs by MTT assay. It counts as cell-based. For orientation: Tetrazolium assays rely on reduction of a dye to a coloured formazan, in cell work by metabolically active cells.
For data set [21], the system named is Staphylococcus aureus. In words: Antibacterial activity against methicillin-resistant Staphylococcus aureus ATCC 33592 grown on half-MIC concentration for 17 passages measured after 17 days by broth-microdilution method. Type of data set: functional, organism-based.
The subject of data set [22] is N2a. In words: Toxicity against mouse N2A cells expressing amyloid precursor protein up to 50 ug/ml after 36 hrs by MTT assay. It counts as cell-based.
Data set [23] is described as follows: Selectivity for Bacillus subtilis BR151 over mouse N2A cells expressing amyloid precursor protein.
A short description of data set [24]: Selectivity for Klebsiella pneumoniae ATCC 13383 over mouse N2A cells expressing amyloid precursor protein.

Values after ≈ are worked out from the molar mass of the structure shown. Active and inactive are the calls of the source. The calls are words filed in the database; no cut-off is given here. Bounds are passed on as bounds.

Four compounds from ChEMBL document CHEMBL2046294, “Lipo-γ-AApeptides as a new class of potent and broad-spectrum antimicrobial agents” (J Med Chem, 2012) can be followed below.

By HC50 is commonly meant the concentration that lyses half of the red blood cells. For orientation: MIC means the lowest concentration that inhibits growth of the organism. Read a high MIC as a less susceptible organism.

For `CCn1cc(C(=O)O)c(=O)c2cc(F)c(N3CCNCC3)cc21` [NORFLOXACIN], the Ratio in [1] is listed as greater than 20.

Turning to `CCCCCCCC/C=C\CCCCCCCC(=O)N[C@@H](C)CN(CC(=O)N[C@@H](C)CN(CC(=O)N[C@@H](CC(C)C)CN(CC(=O)N[C@@H](CC(C)C)CN(CC(=O)N[C@@H](CC(C)C)CN(CC(N)=O)C(=O)CCCN)C(=O)CCCN)C(=O)CCCN)C(C)=O)C(C)=O`, the outcome in data set [2], in [8], in [9], in [10], in [12] and in data set [13] was Active. Besides, the outcome in data set [16] was Active. In addition, in data set [3], the HC10 turned out to be 100 µg/mL. In addition, the HC50 at 1 h in data set [3] was greater than 500 µg/mL. For the same compound, the minimum inhibitory concentration (MIC) in data set [4] is 3 µg/mL (≈ 2.28 µM); in data set [5], 3 µg/mL (≈ 2.28 µM); in data set [6] it was 4 µg/mL (≈ 3.04 µM); in [7], 3 µg/mL (≈ 2.28 µM); in data set [11], 3 µg/mL (≈ 2.28 µM); in data set [14] it was 3 µg/mL (≈ 2.28 µM). The MIC in [15] and in data set [18] was 3 µg/mL (≈ 2.28 µM) throughout. Further, the Ratio in [17] is greater than 167.

On to `CCCCCCCCCCCCCCCC(=O)N[C@@H](C)CN(CC(=O)N[C@@H](C)CN(CC(=O)N[C@@H](CC(C)C)CN(CC(=O)N[C@@H](CC(C)C)CN(CC(=O)N[C@@H](CC(C)C)CN(CC(N)=O)C(=O)CCCN)C(=O)CCCN)C(=O)CCCN)C(C)=O)C(C)=O`, for which the result in data set [2], in data set [8], in [9], in data set [21], in data set [10] and in data set [12] was Active. Moreover, the outcome in data set [13] and in data set [16] was Active. Also, the HC10 in data set [3] was found to be 60 µg/mL. In [3], the HC50 at 1 h was greater than 500 µg/mL. Besides, the MIC in [4] is 2.5 µg/mL (≈ 1.94 µM); in data set [5] it was 4 µg/mL (≈ 3.1 µM); in [6] it was 5 µg/mL (≈ 3.87 µM); in data set [7], 5 µg/mL (≈ 3.87 µM); in [11] it was 5 µg/mL (≈ 3.87 µM); in data set [14] it was 5 µg/mL (≈ 3.87 µM). Also, the MIC in data set [15] stood at 2.5 µg/mL (≈ 1.94 µM); in [18], 4 µg/mL (≈ 3.1 µM). Also, the Ratio was 10 in data set [19], greater than 125 in data set [17], 10 in data set [23] and 10 in data set [24]. The results for the Activity in data set [20] and in data set [22] were 50% and “Non-toxic”, respectively.

As to `CCCCCCCCCCCCCCCC(=O)N[C@@H](CCCCN)CN(CC(=O)N[C@@H](CCCCN)CN(CC(=O)N[C@@H](CCCCN)CN(CC(N)=O)C(=O)CCCN)C(=O)CCCN)C(=O)CCCN`, the HC10 in data set [3] was found to be 300 µg/mL. Besides, the HC50 at 1 h in [3] was greater than 500 µg/mL. In addition, the MIC in [4] was 20 µg/mL (≈ 19.5 µM); in data set [5] it was 2 µg/mL (≈ 1.95 µM); in data set [6], 10 µg/mL (≈ 9.76 µM); in [7], 2 µg/mL (≈ 1.95 µM); in data set [11], 15 µg/mL (≈ 14.6 µM); in data set [14], greater than 50 µg/mL. Further, the figures for the MIC in [15] and in data set [18] were 1.5 µg/mL (≈ 1.46 µM) and 5 µg/mL (≈ 4.88 µM), respectively. The result in data set [8] was Active. In addition, in data set [17], the Ratio is greater than 100.
